Read-outs that look alike come from different tables or passages of the source.

This is an account of results in PMC12067145 (ACS Medicinal Chemistry Letters, 2025).

A short description of one data set: ChromatoLogD. It is filed as physicochemical. The source says:
1 TREK-1 Inhibitory Activity and Lipophilicity of Analogues 10 | column: ChromatoLogD

The target in the next data set is T1, human TREK-1 (Homo sapiens, UniProt O95069).
T1 sequence (O95069 1-426): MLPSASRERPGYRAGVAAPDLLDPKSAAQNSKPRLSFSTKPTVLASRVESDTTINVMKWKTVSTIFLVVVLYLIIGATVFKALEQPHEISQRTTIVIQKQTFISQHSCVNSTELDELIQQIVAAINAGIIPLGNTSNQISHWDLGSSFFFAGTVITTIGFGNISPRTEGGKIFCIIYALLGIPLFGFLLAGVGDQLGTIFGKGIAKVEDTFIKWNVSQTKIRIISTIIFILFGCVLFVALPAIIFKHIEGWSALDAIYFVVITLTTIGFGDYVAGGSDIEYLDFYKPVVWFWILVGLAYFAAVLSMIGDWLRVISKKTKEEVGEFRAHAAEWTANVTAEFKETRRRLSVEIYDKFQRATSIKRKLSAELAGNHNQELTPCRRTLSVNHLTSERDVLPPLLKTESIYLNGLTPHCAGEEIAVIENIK
The experiment in a line: TREK-1 thallium (Tl+) flux assay. Particulars: for IC50: read-out: h TREK-1 Tl+ IC50, thallium flux, hTREK-1/CHO.

The nature of data set [1]: Liver microsome intrinsic clearance (mouse). It is filed as in vitro ADME. Particulars: pH 7.4; mouse liver microsomes; read-out: LMS CLINT mouse. Here is the method: (§1) After a 5 min preincubation, the reaction was initiated by the addition of NADPH (1 mM). At selected time intervals between 0 ~ 60 min (e.g. 0, 3, 7, 15, 25, 45 and/or 60 min), aliquots were taken and subsequently placed into a 96-well plate containing cold acetonitrile with an internal standard (50 ng/mL carbamazepine). Plates were then centrifuged at 3000 rcf (4 °C) for 10 min, and the supernatant was transferred to a separate 96-well plate and diluted 1:1 with water for LC/MS/MS analysis. The in vitro half-life (T 1/2, min, Eq. 1), intrinsic clearance (CLint, mL/min/kg, Eq. 2), and subsequent predicted hepatic clearance (CLhep, mL/min/kg, Eq. 3) were determined employing the following equations: […]
(§2) where k represents the slope from linear regression analysis of the natural log percent remaining of a test compound as a function of incubation time […]
(§3) (2) CLint = in vitroT1/2 x mg microsomes x gram liver x kg body wt ascale-up factors: of 20 (human) or 45 (rat) or 87.5 (mouse) […]
(§4) where Qh (hepatic blood flow, mL/min/kg) is 21 (human) or 70 (rat) or 90 (mouse).
(§5) LC/MS/MS Bioanalysis of Samples from Plasma Protein Binding and Intrinsic Clearance […]
(§6) Samples were analyzed on a Thermo Electron TSQ Quantum Ultra triple quad mass spectrometer (San Jose, CA) via electrospray ionization (ESI) with two Themo Electron Accella pumps (San Jose, CA), and a Leap Technologies CTC PAL autosampler (Carrboro, NC). Analytes were separated by gradient elution on a dual column system with two Thermo Hypersil Gold (2.1 x 30 mm, 1.9 µm) columns (San Jose, CA) thermostated at 40 °C. HPLC mobile phase A was 0.1% formic acid in water and mobile phase B was 0.1% formic acid in acetonitrile. The gradient started […]
(§7) for 0.2 min; returned to 10% B in 0.1 min. The total run time was 1.3 min and the HPLC flow rate was 0.8 mL/min. While pump 1 ran the gradient method, pump 2 equilibrated the alternate column isocratically at 10% B. Compound optimization, data collection, and processing were performed using Thermo Electron's QuickQuan software (v2.3) and Xcalibur (v2.0.7 SP1). […]
(Liver microsomes are a subcellular fraction often used to study metabolism.)

The nature of data set [2]: Liver microsome intrinsic clearance (human). It is filed as in vitro ADME. Particulars: for CLint scaled at 1 µM: pH 7.4, human liver microsomes, read-out: LMS CLINT human. Here is the method: as §1, §2, §3, §4, §5, §6, §7
Data set [3] can be described thus: Plasma protein binding (mouse). Type of data set: in vitro ADME. Particulars: pH 7.4, read-out: PPB mouse (converted). Here is the method:
(§8) 0.3% DMSO - ΔRatio of 1 µM control compound)x100
(§9) In vitro Plasma protein binding and Brain homogenate binding: Determination of fraction unbound (f u) in plasma was conducted in vitro via equilibrium dialysis using HTDialysis (HTD) membrane plates. The top half of the plate was filled with 100 uL of Dubelco’s Phosphate Buffered Saline, pH 7.4 (DPBS). Compounds were diluted into plasma from each species (5 µM final concentration), which was aliquoted in triplicate to the ‘bottom half’ of the prepared HTD plate wells. The HTD plate was sealed and incubated for 6 hours at 37 °C. Following incubation, each well (both top and bottom halves) were transferred (20 µL) to the corresponding wells of a 96-shallow-well (V-bottom) plate. The daughter plates were then matrix-matched (DPBS side wells received equal volume of plasma, and plasma side wells received equal volume of DPBS), and extraction solution (120 µL; acetonitrile containing 50 nM carbamazepine as IS) was added to all wells of both daughter plates to precipitate protein and extract test article. The plates were then sealed and centrifuged (3500 rcf) for 10 minutes at ambient temperature. Supernatant (60 µL) from each well of the daughter plates was then transferred to the corresponding wells of new daughter plates (96-shallow-well, V bottom) containing water (Milli-Q, 60 µL/well), and the plates were sealed in preparation for LC-MS/MS analysis (see LC-MS/MS analysis method below).
(§10) The unbound fraction (f u) was calculated following the equation below, and mean values for each species were calculated from 3 replicates. A similar approach was used to determine the degree of brain homogenate binding, which employed the same methodology and procedure with the following modifications: 1) a final compound concentration of 1 μM was used, 2) naïve rat brains were homogenized in DPBS (1:3 composition of brain: DPBS, w/w) using a Mini-Bead Beater™ machine in order to obtain brain homogenate, which was then treated in the same manner as the plasma samples in the previously described plasma protein binding assay. Fraction unbound for both plasma and brain samples was determined using Equation 4.

The nature of data set [4]: Plasma protein binding (human). The conditions noted are these: pH 7.4, read-out: PPB human (converted). Type of data set: in vitro ADME. Here is the method:
as §8, §9, §10

The nature of data set [5]: Rat IV:PBL PK cassette study / in vivo rat clearance. Particulars: male, Sprague-Dawley, in vivo rat plasma clearance, read-out: rat CLp; for clearance: intravenous; for clearance at 24 h: iv, 0.2 mg/kg.
The next data set has as its system TREK-1. Particulars: cited from earlier work.
Data set [6] in a line: Liver microsome intrinsic clearance (rat). It is filed as in vitro ADME. Particulars: pH 7.4; rat liver microsomes; read-out: LMS CLINT rat. Here is the method: as §1, §2, §3, §4, §5, §6, §7
Data set [7] can be described thus: Plasma protein binding (species not stated). Type of data set: in vitro ADME. The conditions noted are these: pH 7.4. The method, then: as §8
as §9, with “Supernatant (60 µL) from each well of the daughter plates was then transferred to the corresponding wells of new daughter plates (96-shallow-well, V bottom) containing water (Milli-Q, 60 µL/well), and the plates were sealed in preparation for LC-MS/MS analysis (see LC-MS/MS analysis method below).” left out
The unbound fraction (f u) was calculated following the equation below, and mean values for each species were calculated from 3 replicates. […] Fraction unbound for both plasma and brain samples was determined using Equation 4.

The nature of the next data set: Aqueous solubility. Type of data set: physicochemical. The conditions noted are these: cyclopropyl amides versus N-Boc series.

On to `Cc1cc(OCc2ccccc2)ccc1NC(=O)c1cc(NC(=O)OC(C)(C)C)ccc1Cl` [Compound 6], for which the chromatographic logD (as a rule, lipophilicity estimated from chromatographic retention) in the data set “ChromatoLogD” was 4.9. The “increase in TREK-1 potency” value on human TREK-1 (versus HTS hit 5) is recorded as ~17 fold.

For `Cc1cc(C#Cc2ccccc2)cnc1NC(=O)c1cc(NC(=O)OC(C)(C)C)ccc1Cl` [Compound 11], the CLint scaled at 1 µM in data set [1] is 34 mL/min/kg; in data set [2], 13 mL/min/kg. Also, the “lowering of human microsomal intrinsic clearance” value in data set [2] (versus 10a) stood at 10 fold. The fraction unbound at 6 h, 5 µM is 0.013 in data set [3] and 0.005 in data set [4]. Besides, at human TREK-1 (versus 10a), the “increase in TREK-1 potency” value was ~4 fold.

For `CC(C)(C)OC(=O)Nc1ccc(Cl)c(C(=O)Nc2ncc(C#Cc3ccccc3)cc2Cl)c1` [Compound 13b], the fraction unbound at 6 h, 5 µM in data set [3] was < 0.001.

In “ChromatoLogD”, `Cc1nc(OCc2ccccc2)ccc1NC(=O)c1cc(NC(=O)OC(C)(C)C)ccc1Cl` [Compound 10b] yielded a chromatographic logD of 5.

With `CC(C)(C)OC(=O)Nc1ccc(Cl)c(C(=O)Nc2ncc(C#Cc3ccccc3)cc2F)c1` [Compound 13a], the CLint scaled at 1 µM in data set [1] came out at 6 mL/min/kg; in data set [2] it was 10 mL/min/kg. Further, the fraction unbound at 6 h, 5 µM in [3] was 0.011; in data set [4] it was 0.002.

In the case of `Cc1nc(OCc2ccccc2)cnc1NC(=O)c1cc(NC(=O)OC(C)(C)C)ccc1Cl` [Compound 10c], the clearance in data set [5] amounted to 135 mL/min/kg. In addition, the chromatographic logD in the data set “ChromatoLogD” stood at 4.8.

In the case of `Cc1cc(C#Cc2cccc(F)c2)cnc1NC(=O)c1cc(NC(=O)OC(C)(C)C)ccc1Cl` [Compound 14b], the results for the CLint scaled at 1 µM in [1] and in data set [2] were 40 mL/min/kg and 20 mL/min/kg, respectively. Moreover, the fraction unbound at 6 h, 5 µM in [3] and in data set [4] was < 0.001 in each case.

For `O=C(CSc1ccc2ccccc2n1)NNC(=O)c1ccc(Cl)cc1` [TKIM], in the data set on TREK-1 (state-dependent TREK-1 inhibitor), the IC50 (commonly the midpoint of a concentration-inhibition curve) was 2960 nM.

In the case of `Cc1cc(C#Cc2ccncc2)cnc1NC(=O)c1cc(NC(=O)OC(C)(C)C)ccc1Cl` [Compound 14d], the CLint scaled at 1 µM in [1] was 78 mL/min/kg; in data set [2] it was 27 mL/min/kg.

`Cc1nc(C#Cc2ccccc2)cnc1NC(=O)c1cc(NC(=O)OC(C)(C)C)ccc1Cl` [Compound 12]: in [5], the clearance worked out at 25 mL/min/kg.

As to `Cc1cc(C#Cc2ccccc2F)cnc1NC(=O)c1cc(NC(=O)OC(C)(C)C)ccc1Cl` [Compound 14a], the CLint scaled at 1 µM in [1] and in data set [2] was 13 mL/min/kg each time. Also, on human TREK-1, the half-inhibitory concentration (IC50) is 540 nM.

Consider `Cc1cc(C#Cc2ccccc2)cnc1NC(=O)c1cc(NC(=O)C2CC2)ccc1Cl` [Compound 15a], for which the values for the CLint scaled at 1 µM in data set [6], in data set [1] and in [2] were 25 mL/min/kg, 69 mL/min/kg and 13 mL/min/kg, respectively. For the same molecule, the fraction unbound at 6 h, 5 µM in data set [7] is < 0.003. For the same molecule, in the data set “Aqueous solubility”, the “aqueous solubility (in words)” value is recorded as “no improvement on aqueous solubility”. In data set [5], the clearance at 24 h was found to be 12 mL/min/kg. Besides, the IC50 at human TREK-1 is 180 nM.

As to `Cc1cc(C#Cc2ccc(F)cc2)cnc1NC(=O)c1cc(NC(=O)C2CC2)ccc1Cl` [Compound 15b], the CLint scaled at 1 µM in data set [6] came out at 10 mL/min/kg; in data set [1], 50 mL/min/kg; in data set [2], 10 mL/min/kg. For the same molecule, the fraction unbound at 6 h, 5 µM in data set [7] is < 0.003. Further, the “aqueous solubility (in words)” value in “Aqueous solubility” is on record as “no improvement on aqueous solubility”. The clearance at 24 h in data set [5] came out at 1.4 mL/min/kg.

For `Cc1ccccc1CC1OC(=O)c2cc(C3CCNCC3)ccc21` (centres unmarked) [Cpd8], the concentration for half-maximal inhibition (IC50) in the data set with TREK-1 was 810 nM.

Turning to `Cc1cc(OCc2ccccc2)cnc1NC(=O)c1cc(NC(=O)OC(C)(C)C)ccc1Cl` [Compound 10a], the CLint scaled at 1 µM in [2] was found to be 137 mL/min/kg. The molecule also showed a chromatographic logD in the data set “ChromatoLogD” of 4.4. In addition, the IC50 on human TREK-1 was 560 nM.
